Measurements from patent US20240166647A1, “Cereblon Ligands” (THE REGENTS OF THE UNIVERSITY OF MICHIGAN, priority 2021, published 2024).

Biological target: T1, GST-tagged wild-type human CRBN protein (Homo sapiens, UniProt Q96SW2)
T1 construct: purchased Cisbio 64BDCRBNPEG
Assay: Cereblon Binding Assay (Cisbio Cereblon Binding Kit, TR-FRET)
Conditions: TR-FRET competition with XL665-labelled Thalidomide, room temperature about 3 hours
Method: In some embodiments, the biological assay may involve evaluation of CRBN binding activity, e.g., in Cereblon Binding Kit (Cisbio, #64BDCRBNPEG).
In some embodiments, the cell line is maintained and cultured, e.g., at room temperature for about 3 hours.
In some embodiments, the Fluorescence Resonance Energy Transfer (TR-FRET) measurements of the cell line is recorded and evaluated.
Procedure for Cereblon Binding Assay. The binding to cereblon (CRBN) was determined using the Cereblon Binding Kit (Cisbio, #64BDCRBNPEG) following the manufacturer's instruction. Briefly, serially diluted compounds were incubated with GST-tagged wild-type human CRBN protein, XL665-labelled Thalidomide and Europium Cryptate labelled GST antibody at room temperature for about 3 hours. […] The readings were normalized to the control (0.5%) and the ICso was calculated by nonlinear regression (four parameters sigmoid fitted with variable slope) analysis using the GraphPad Prism 8 software.

T1 sequence (Q96SW2 whole entry): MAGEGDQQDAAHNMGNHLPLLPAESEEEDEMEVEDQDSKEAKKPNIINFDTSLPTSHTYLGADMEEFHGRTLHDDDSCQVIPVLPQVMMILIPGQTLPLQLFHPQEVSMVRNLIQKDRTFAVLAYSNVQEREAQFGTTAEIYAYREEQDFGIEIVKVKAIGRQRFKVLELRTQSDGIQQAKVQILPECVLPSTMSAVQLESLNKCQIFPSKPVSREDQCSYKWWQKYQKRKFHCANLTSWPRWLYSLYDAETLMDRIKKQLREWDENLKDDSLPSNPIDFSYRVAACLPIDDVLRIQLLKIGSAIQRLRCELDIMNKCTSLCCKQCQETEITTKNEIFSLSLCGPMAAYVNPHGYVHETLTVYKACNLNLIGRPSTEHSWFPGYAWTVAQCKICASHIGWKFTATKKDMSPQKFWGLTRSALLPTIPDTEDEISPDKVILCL

Compound | IC50
O=C1CCC(N2Cc3cc4c(cc3C2=O)CC2(CNC2)C4)C(=O)N1 (stereo not shown) [Example 218] | 1 to 10 µM
O=C1CCC(N2C(=O)c3ccc4c(c3C2=O)CNC4)C(=O)N1 (stereo not shown) [Example 219] | 1 to 10 µM
COc1c2c(cc3c1CN(C1CCC(=O)NC1=O)C3=O)CN(Cc1ccccc1)C2 (stereo not shown) [Example 220] | < 0.5 µM
O=C1CCC(N2C(=O)c3cc4c(cc3C2=O)CN(Cc2ccc(F)cc2)CC4)C(=O)N1 (stereo not shown) [Example 221] | 0.5 to 1 µM
O=C1CCC(N2Cc3cc4c(cc3C2=O)CN(Cc2ccc(F)cc2)C4)C(=O)N1 (stereo not shown) [Example 222] | < 0.5 µM
O=C1CCC(N2C(=O)c3cc4c(cc3C2=O)CCN(Cc2ccc(F)cc2)CC4)C(=O)N1 (stereo not shown) [Example 223] | 1 to 10 µM
O=C1CCC(N2C(=O)c3cc4c(cc3C2=O)CN(Cc2cccc3c2OCCO3)C4)C(=O)N1 (stereo not shown) [Example 224] | < 0.5 µM
O=C1CCC(N2Cc3cc4c(cc3C2=O)CN(C(=O)c2cccc3c2CCC3)C4)C(=O)N1 (stereo not shown) [Example 225] | < 0.5 µM
O=C1CCC(N2Cc3cc4c(cc3C2=O)CN(C(=O)c2cccc3c2OCO3)C4)C(=O)N1 (stereo not shown) [Example 226] | < 0.5 µM
O=C1CCC(N2C(=O)c3cc4c(cc3C2=O)CN(Cc2ccc(C(F)(F)F)cc2)CCC4)C(=O)N1 (stereo not shown) [Example 227] | 0.5 to 1 µM
O=C1CCC(N2C(=O)c3cc4c(cc3C2=O)CC(CN2CCC(Cc3ccc(F)cc3)CC2)C4)C(=O)N1 (stereo not shown) [Example 228] | < 0.5 µM
O=C1CCC(N2C(=O)c3cc4c(cc3C2=O)CC(CN2CC3(CN(Cc5ccc(F)cc5)C3)C2)C4)C(=O)N1 (stereo not shown) [Example 229] | 0.5 to 1 µM
O=C1CCC(N2Cc3cc4c(cc3C2=O)CN(C2CN(Cc3ccc(F)c(F)c3)C2)C4=O)C(=O)N1 (stereo not shown) [Example 230] | 0.5 to 1 µM
O=C1CCC(N2Cc3cc4c(cc3C2=O)CN(CC2CN(Cc3ccc(F)c(F)c3)C2)C4=O)C(=O)N1 (stereo not shown) [Example 231] | 0.5 to 1 µM
CCN1CC(N2Cc3cc4c(cc3C2=O)CN(C2CCC(=O)NC2=O)C4=O)C1 (stereo not shown) [Example 232] | 0.5 to 1 µM
CC(=O)N1CC(N2Cc3cc4c(cc3C2=O)CN(C2CCC(=O)NC2=O)C4=O)C1 (stereo not shown) [Example 233] | 1 to 10 µM
COc1c2c(cc3c1C(=O)N(C1CCC(=O)NC1=O)C3=O)CN(CC1CN(Cc3ccc(F)cc3Cl)C1)C2 (stereo not shown) [Example 234] | 0.5 to 1 µM
O=C1CCC(N2Cc3cc4c(cc3C2=O)CC2(C4)CN(Cc3ccc(F)cc3)C2)C(=O)N1 (stereo not shown) [Example 235] | 0.5 to 1 µM
O=C(O)CN1Cc2cc3c(cc2C1)C(=O)N(C1CCC(=O)NC1=O)C3 (stereo not shown) [Example 237] | < 0.5 µM
O=C(O)CN1CCc2cc3c(cc2C1)C(=O)N(C1CCC(=O)NC1=O)C3=O (stereo not shown) [Example 238] | 1 to 10 µM

Compound | IC50
O=C(O)CCN1Cc2cc3c(cc2C1)C(=O)N(C1CCC(=O)NC1=O)C3=O (stereo not shown) [Example 239] | < 0.5 µM
O=C(O)CCCN1Cc2cc3c(cc2C1)C(=O)N(C1CCC(=O)NC1=O)C3=O (stereo not shown) [Example 240] | < 0.5 µM
O=C(O)CCN1CCc2cc3c(cc2C1)C(=O)N(C1CCC(=O)NC1=O)C3=O (stereo not shown) [Example 241] | 0.5 to 1 µM
O=C(O)CCCN1CCc2cc3c(cc2C1)C(=O)N(C1CCC(=O)NC1=O)C3=O (stereo not shown) [Example 242] | 1 to 10 µM
O=C(O)CN1CCc2cc3c(cc2CC1)C(=O)N(C1CCC(=O)NC1=O)C3=O (stereo not shown) [Example 243] | 0.5 to 1 µM
O=C1CCC(N2C(=O)c3cc4c(cc3C2=O)CN(Cc2ccc(F)nc2)C4)C(=O)N1 (stereo not shown) [Example 245] | < 0.5 µM
O=C1CCC(N2C(=O)c3cc4c(cc3C2=O)CN(Cc2cnc(Cl)nc2)C4)C(=O)N1 (stereo not shown) [Example 246] | 1 to 10 µM
O=C1CCC(N2Cc3cc4c(cc3C2)C(=O)N(C2CCC(=O)NC2=O)C4)CC1 (stereo not shown) [Example 249] | 0.5 to 1 µM
O=C1CCC(N2Cc3cc4c(cc3C2=O)CN(C(=O)C2CCNCC2)C4)C(=O)N1 (stereo not shown) [Example 254] | < 0.5 µM
O=C1CCC(N2C(=O)c3ccc4c(c3C2=O)CNCC4)C(=O)N1 (stereo not shown) [Example 255] | 1 to 10 µM
O=C1CCC(N2Cc3cc4c(cc3C2=O)CN(C2CCNCC2)C4=O)C(=O)N1 (stereo not shown) [Example 256] | < 0.5 µM
O=C1CCC(N2Cc3cc4c(cc3C2=O)CN(CC2CCNCC2)C4)C(=O)N1 (stereo not shown) [Example 263] | 0.5 to 1 µM
COC1(CN2Cc3cc4c(cc3C2)C(=O)N(C2CCC(=O)NC2=O)C4=O)CCN(C(=O)OC(C)(C)C)CC1 (stereo not shown) [Example 268] | 0.5 to 1 µM
CC1(CN2Cc3cc4c(cc3C2)C(=O)N(C2CCC(=O)NC2=O)C4=O)CCN(C(=O)OC(C)(C)C)CC1 (stereo not shown) [Example 269] | < 0.5 µM
CC(C)(C)OC(=O)N1CCC(F)(CN2Cc3cc4c(cc3C2)C(=O)N(C2CCC(=O)NC2=O)C4=O)CC1 (stereo not shown) [Example 270] | 0.5 to 1 µM
O=C1CCC(N2C(=O)c3cc4c(cc3C2=O)CN(CC2CN(c3ccc(C(=O)O)cc3)C2)C4)C(=O)N1 (stereo not shown) [Example 271] | < 0.5 µM
O=C1CCC(N2C(=O)c3cc4c(cc3C2=O)CN(CC2CCN(c3ccc(C(=O)O)cc3)CC2)C4)C(=O)N1 (stereo not shown) [Example 272] | < 0.5 µM
O=C1CCC(N2Cc3cc4c(cc3C2=O)CNC4)C(=O)N1 (stereo not shown) [Example 274] | 1 to 10 µM
COc1c2c(cc3c1CN(C1CCC(=O)NC1=O)C3=O)CNC2 (stereo not shown) [Example 275] | 0.5 to 1 µM

The remaining lines, values ahead:

IC50 | Compound
> 10 µM | O=C1CCC(N2C(=O)c3cc4c(cc3C2=O)CC2(CNC2)C4)C(=O)N1 (stereo not shown) [Example 217]
< 0.5 µM | O=C(O)CN1Cc2cc3c(cc2C1)C(=O)N(C1CCC(=O)NC1=O)C3=O (stereo not shown) [Example 236]
< 0.5 µM | CNC1CCC(N2Cc3cc4c(cc3C2)C(=O)N(C2CCC(=O)NC2=O)C4=O)CC1 (stereo not shown) [Example 244]
0.5 to 1 µM | O=C1CCC(N2Cc3cc4c(cc3C2)C(=O)N(C2CCC(=O)NC2=O)C4=O)CC1 (stereo not shown) [Example 247]
< 0.5 µM | NC1CCC(N2Cc3cc4c(cc3C2)C(=O)N(C2CCC(=O)NC2=O)C4=O)CC1 (stereo not shown) [Example 248]
< 0.5 µM | O=C1CCC(N2C(=O)c3cc4c(cc3C2=O)CN(C(=O)C2CCC3(CCNCC3)CC2)C4)C(=O)N1 (stereo not shown) [Example 250]
0.5 to 1 µM | O=C1CCC(N2C(=O)c3cc4c(cc3C2=O)CN(C2CCC(C(=O)O)CC2)C4)C(=O)N1 (stereo not shown) [Example 251]
< 0.5 µM | O=C1CCC(C(=O)N2Cc3cc4c(cc3C2)C(=O)N(C2CCC(=O)NC2=O)C4=O)CC1 (stereo not shown) [Example 252]
< 0.5 µM | O=C1CCC(N2C(=O)c3cc4c(cc3C2=O)CN(C(=O)C2CCNCC2)C4)C(=O)N1 (stereo not shown) [Example 253]
1 to 10 µM | O=C1CCC(N2C(=O)c3cc4c(cc3C2=O)CCNCC4)C(=O)N1 (stereo not shown) [Example 257]
1 to 10 µM | O=C1CCC(N2C(=O)c3cc4c(cc3C2=O)CNCC4)C(=O)N1 (stereo not shown) [Example 258]
0.5 to 1 µM | O=C1CCC(N2C(=O)c3cc4c(cc3C2=O)CN([C@H]2C[C@H](C(=O)O)C2)C4)C(=O)N1 (stereo partly shown) [Example 259]
< 0.5 µM | O=C1CCC(N2C(=O)c3cc4c(cc3C2=O)CN(C2CNC2)C4)C(=O)N1 (stereo not shown) [Example 260]
1 to 10 µM | O=C1CCC(N2C(=O)c3cc4c(cc3C2=O)CN(C2CC3(CCNCC3)C2)C4)C(=O)N1 (stereo not shown) [Example 261]
1 to 10 µM | O=C1CCC(N2C(=O)c3cc4c(cc3C2=O)CN(C2CCCC23CCNCC3)C4)C(=O)N1 (stereo not shown) [Example 262]
< 0.5 µM | O=C1CCC(N2C(=O)c3cc4c(cc3C2=O)CN(C2CCNC2)C4)C(=O)N1 (stereo not shown) [Example 264]
0.5 to 1 µM | O=C1CCC(N2C(=O)c3cc4c(cc3C2=O)CN(C2CCNCC2)C4)C(=O)N1 (stereo not shown) [Example 265]
< 0.5 µM | O=C1CCC(N2C(=O)c3cc4c(cc3C2=O)CN(C2CCC3(CCNCC3)CC2)C4)C(=O)N1 (stereo not shown) [Example 266]
1 to 10 µM | O=C1CCC(N2Cc3cc4c(cc3C2=O)CN(C2CCNCC2)C4)C(=O)N1 (stereo not shown) [Example 267]
